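Each compound was tested at five concentrations against cells in 96-well plates for 48 hours. The concentration for 50% growth inhibition is given as GI50.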 Activity calls are given as the source filed them. Rule as the data show it: active = GI50 up to about 1.1 µM and inactive = higher.
What was measured:
Test in all cases: NCI-60 cell line screen, 48 h
DU-145 = system: DU-145
OVCAR-4 = system: OVCAR-4
OVCAR-8 = system: OVCAR-8
RXF 393 = system: RXF 393
NCI-H460 = system: NCI-H460
SF-268 = system: SF-268
EKVX = system: EKVX
RPMI-8226 = system: RPMI-8226
OVCAR-5 = system: OVCAR-5
U-251 = system: U-251
HOP-62 = system: HOP-62
BT-549 = system: BT-549
SNB-75 = system: SNB-75
SW-620 = system: SW-620
K562 = system: K562
SF-295 = system: SF-295
786-0 = system: 786-0
HCT-15 = system: HCT-15
CAKI-1 = system: CAKI-1
TK-10 = system: TK-10
NCI-H522 = system: NCI-H522
SR = system: SR
A498 = system: A498
NCI-H23 = system: NCI-H23
UO-31 = system: UO-31
SNB-19 = system: SNB-19
HCT-116 = system: HCT-116
Malme-3M = system: Malme-3M
ACHN = system: ACHN
HL-60 = system: HL-60
HCC 2998 = system: HCC 2998
SK-MEL-2 = system: SK-MEL-2
M14 = system: M14
Hs-578T = system: Hs-578T
COLO 205 = system: COLO 205
LOX IMVI = system: LOX IMVI
MDA-MB-231 = system: MDA-MB-231
UACC-257 = system: UACC-257
NCI-H226 = system: NCI-H226
SN12C = system: SN12C
MDA-MB-435 = system: MDA-MB-435
KM12 = system: KM12
T47D = system: T47D
HT-29 = system: HT-29
OVCAR-3 = system: OVCAR-3
SK-MEL-28 = system: SK-MEL-28
HOP-92 = system: HOP-92
SK-OV-3 = system: SK-OV-3
IGROV-1 = system: IGROV-1
MDA-N = system: MDA-N
NCI/ADR-RES = system: NCI/ADR-RES
SK-MEL-5 = system: SK-MEL-5
A549 = system: A549
PC-3 = system: PC-3
MCF7 = system: MCF7
UACC-62 = system: UACC-62
CCRF-CEM = system: CCRF-CEM
SF-539 = system: SF-539
MOLT-4 = system: MOLT-4

OCC1CCCC(n2cnc3c(S)ncnc32)O1 (configuration not stated)
GI50 (DU-145): > 100 µM (inactive) | GI50 (OVCAR-4): > 100 µM (inactive) | GI50 (OVCAR-8): > 100 µM (inactive) | GI50 (RXF 393): > 100 µM (inactive) | GI50 (NCI-H460): > 100 µM (inactive) | GI50 (SF-268): > 100 µM (inactive) | GI50 (EKVX): > 100 µM (inactive) | GI50 (RPMI-8226): > 100 µM (inactive) | GI50 (OVCAR-5): > 100 µM (inactive) | GI50 (U-251): > 100 µM (inactive) | GI50 (HOP-62): > 100 µM (inactive) | GI50 (BT-549): > 100 µM (inactive) | GI50 (SNB-75): > 100 µM (inactive) | GI50 (SW-620): > 100 µM (inactive) | GI50 (K562): > 100 µM (inactive) | GI50 (SF-295): > 100 µM (inactive) | GI50 (786-0): > 100 µM (inactive) | GI50 (HCT-15): > 100 µM | GI50 (CAKI-1): > 100 µM (inactive) | GI50 (TK-10): > 100 µM (inactive) | GI50 (NCI-H522): > 100 µM (inactive) | GI50 (SR): > 100 µM (inactive) | GI50 (A498): > 100 µM (inactive) | GI50 (NCI-H23): > 100 µM (inactive) | GI50 (UO-31): > 100 µM (inactive) | GI50 (SNB-19): > 100 µM (inactive) | GI50 (HCT-116): > 100 µM (inactive) | GI50 (Malme-3M): > 100 µM (inactive) | GI50 (ACHN): > 100 µM (inactive) | GI50 (HL-60): 0.0252 µM (active) | GI50 (HCC 2998): > 100 µM (inactive) | GI50 (SK-MEL-2): > 100 µM (inactive) | GI50 (M14): > 100 µM (inactive) | GI50 (Hs-578T): > 100 µM (inactive) | GI50 (COLO 205): > 100 µM (inactive) | GI50 (LOX IMVI): > 100 µM (inactive) | GI50 (MDA-MB-231): > 100 µM (inactive) | GI50 (UACC-257): > 100 µM (inactive) | GI50 (NCI-H226): > 100 µM (inactive) | GI50 (SN12C): > 100 µM (inactive) | GI50 (MDA-MB-435): > 100 µM (inactive) | GI50 (KM12): > 100 µM (inactive) | GI50 (T47D): > 100 µM (inactive) | GI50 (HT-29): > 100 µM (inactive) | GI50 (OVCAR-3): > 100 µM (inactive) | GI50 (SK-MEL-28): > 100 µM (inactive) | GI50 (HOP-92): > 100 µM (inactive) | GI50 (SK-OV-3): > 100 µM (inactive) | GI50 (IGROV-1): > 100 µM (inactive) | GI50 (MDA-N): > 100 µM (inactive) | GI50 (NCI/ADR-RES): > 100 µM (inactive) | GI50 (SK-MEL-5): > 100 µM (inactive) | GI50 (A549): > 100 µM (inactive) | GI50 (PC-3): > 100 µM (inactive) | GI50 (MCF7): > 100 µM (inactive) | GI50 (UACC-62): > 100 µM (inactive)

CC1(C)C2CC(=O)C1(C)C(OCc1ccccc1)C2 (configuration not stated)
GI50 (DU-145): > 100 µM (inactive) | GI50 (CCRF-CEM): 26.1 µM (inactive) | GI50 (OVCAR-8): > 100 µM (inactive) | GI50 (NCI-H460): 33.3 µM (inactive) | GI50 (SF-268): > 100 µM (inactive) | GI50 (EKVX): > 100 µM (inactive) | GI50 (RPMI-8226): 27.7 µM (inactive) | GI50 (OVCAR-5): 29.4 µM (inactive) | GI50 (U-251): 48.3 µM (inactive) | GI50 (HOP-62): 86.1 µM (inactive) | GI50 (BT-549): 54.6 µM (inactive) | GI50 (SNB-75): 34.2 µM (inactive) | GI50 (SW-620): 29.6 µM (inactive) | GI50 (K562): 22.2 µM (inactive) | GI50 (SF-295): 68.7 µM (inactive) | GI50 (786-0): 70 µM (inactive) | GI50 (HCT-15): 26.8 µM | GI50 (CAKI-1): 40.6 µM (inactive) | GI50 (SF-539): > 100 µM (inactive) | GI50 (TK-10): 23.4 µM (inactive) | GI50 (NCI-H522): 22.2 µM (inactive) | GI50 (SR): 25.1 µM (inactive) | GI50 (A498): > 100 µM (inactive) | GI50 (NCI-H23): 27.2 µM (inactive) | GI50 (UO-31): 62.7 µM (inactive) | GI50 (SNB-19): 88.3 µM (inactive) | GI50 (HCT-116): 25.1 µM (inactive) | GI50 (Malme-3M): 32.9 µM (inactive) | GI50 (ACHN): > 100 µM (inactive) | GI50 (HL-60): 24.4 µM (inactive) | GI50 (HCC 2998): 59.8 µM (inactive) | GI50 (SK-MEL-2): > 100 µM (inactive) | GI50 (M14): 24.8 µM (inactive) | GI50 (Hs-578T): 22 µM (inactive) | GI50 (COLO 205): 29.6 µM (inactive) | GI50 (LOX IMVI): 22.1 µM (inactive) | GI50 (MDA-MB-231): 44 µM (inactive) | GI50 (UACC-257): 74 µM (inactive) | GI50 (NCI-H226): > 100 µM (inactive) | GI50 (SN12C): 36.6 µM (inactive) | GI50 (MDA-MB-435): 47 µM (inactive) | GI50 (KM12): 60.8 µM (inactive) | GI50 (T47D): 40.4 µM (inactive) | GI50 (HT-29): 40.6 µM (inactive) | GI50 (OVCAR-3): 62.7 µM (inactive) | GI50 (SK-MEL-28): 94.2 µM (inactive) | GI50 (SK-OV-3): 54.8 µM (inactive) | GI50 (IGROV-1): > 100 µM (inactive) | GI50 (MDA-N): 47.3 µM (inactive) | GI50 (MOLT-4): 16.3 µM (inactive) | GI50 (NCI/ADR-RES): 28.6 µM (inactive) | GI50 (SK-MEL-5): 26.3 µM (inactive) | GI50 (A549): 74.3 µM (inactive) | GI50 (PC-3): 34.4 µM (inactive) | GI50 (MCF7): 64.7 µM (inactive) | GI50 (UACC-62): 62.5 µM (inactive)

COC(=O)/C=C(/C)n1nc2ccccc2n1
GI50 (DU-145): > 100 µM (inactive) | GI50 (CCRF-CEM): > 100 µM (inactive) | GI50 (OVCAR-4): > 100 µM (inactive) | GI50 (OVCAR-8): > 100 µM (inactive) | GI50 (RXF 393): > 100 µM (inactive) | GI50 (NCI-H460): > 100 µM (inactive) | GI50 (SF-268): > 100 µM (inactive) | GI50 (EKVX): 37.7 µM (inactive) | GI50 (RPMI-8226): 22.4 µM (inactive) | GI50 (OVCAR-5): > 100 µM (inactive) | GI50 (U-251): > 100 µM (inactive) | GI50 (HOP-62): > 100 µM (inactive) | GI50 (BT-549): > 100 µM (inactive) | GI50 (SNB-75): > 100 µM (inactive) | GI50 (SW-620): > 100 µM (inactive) | GI50 (K562): > 100 µM (inactive) | GI50 (SF-295): > 100 µM (inactive) | GI50 (786-0): > 100 µM (inactive) | GI50 (HCT-15): > 100 µM | GI50 (CAKI-1): > 100 µM (inactive) | GI50 (TK-10): > 100 µM (inactive) | GI50 (NCI-H522): > 100 µM (inactive) | GI50 (SR): > 100 µM (inactive) | GI50 (A498): 77.3 µM (inactive) | GI50 (NCI-H23): > 100 µM (inactive) | GI50 (UO-31): > 100 µM (inactive) | GI50 (SNB-19): > 100 µM (inactive) | GI50 (HCT-116): > 100 µM (inactive) | GI50 (Malme-3M): > 100 µM (inactive) | GI50 (ACHN): > 100 µM (inactive) | GI50 (HCC 2998): > 100 µM (inactive) | GI50 (SK-MEL-2): > 100 µM (inactive) | GI50 (M14): > 100 µM (inactive) | GI50 (Hs-578T): > 100 µM (inactive) | GI50 (COLO 205): > 100 µM (inactive) | GI50 (MDA-MB-231): > 100 µM (inactive) | GI50 (UACC-257): > 100 µM (inactive) | GI50 (NCI-H226): > 100 µM (inactive) | GI50 (SN12C): > 100 µM (inactive) | GI50 (MDA-MB-435): > 100 µM (inactive) | GI50 (KM12): > 100 µM (inactive) | GI50 (T47D): > 100 µM (inactive) | GI50 (HT-29): > 100 µM (inactive) | GI50 (OVCAR-3): > 100 µM (inactive) | GI50 (SK-MEL-28): > 100 µM (inactive) | GI50 (SK-OV-3): > 100 µM (inactive) | GI50 (IGROV-1): > 100 µM (inactive) | GI50 (MDA-N): > 100 µM (inactive) | GI50 (MOLT-4): > 100 µM (inactive) | GI50 (NCI/ADR-RES): > 100 µM (inactive) | GI50 (SK-MEL-5): > 100 µM (inactive) | GI50 (A549): > 100 µM (inactive) | GI50 (PC-3): > 100 µM (inactive) | GI50 (MCF7): > 100 µM (inactive) | GI50 (UACC-62): > 100 µM (inactive)

— ChEMBL document CHEMBL1201862, “PubChem BioAssay data set” (2004)
